The test addresses T1, SNX1 (SORTING NEXIN1; AtSNX1) (Arabidopsis thaliana, UniProt Q9FG38).
T1 construct: full-length cDNA in pET51b, His-tagged (tag kept), E. coli Rosetta (DE3), Ni-NTA purified
T1 sequence (Q9FG38 1-402): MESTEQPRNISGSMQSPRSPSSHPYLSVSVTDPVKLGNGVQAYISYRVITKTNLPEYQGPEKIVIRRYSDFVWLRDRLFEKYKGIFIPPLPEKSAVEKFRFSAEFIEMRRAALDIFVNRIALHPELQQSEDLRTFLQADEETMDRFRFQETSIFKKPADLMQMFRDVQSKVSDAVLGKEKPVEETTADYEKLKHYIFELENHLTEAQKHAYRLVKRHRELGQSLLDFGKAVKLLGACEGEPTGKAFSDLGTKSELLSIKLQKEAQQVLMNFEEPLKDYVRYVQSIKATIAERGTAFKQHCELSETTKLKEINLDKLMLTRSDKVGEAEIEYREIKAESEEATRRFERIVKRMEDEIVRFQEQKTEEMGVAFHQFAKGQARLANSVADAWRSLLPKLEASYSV
The test is described as follows: liposome co-sedimentation, immunoblot. Format: binding. As to conditions: dioleoyl PC/dioleoyl PA liposomes, pH 7.5, 25 °C; PA (acyl chains not told) also tested by lipid-protein overlay. A general note: In western blotting, separated proteins are transferred to a membrane and probed.

The text below walks through data of article PMC7065129, “Phospholipase D‐derived phosphatidic acid promotes root hair development under phosphorus deficiency by suppressing vacuolar degradation of PIN‐FORMED2” (The New Phytologist, 2019).

For the molecule `CCCCCCCC/C=C\CCCCCCCC(=O)OC[C@H](COP(=O)(O)O)OC(=O)CCCCCCC/C=C\CCCCCCCC` [dioleoyl PA], the “liposome co-sedimentation, immunoblot” value is recorded as “results confirmed the specific SNX1‐PA binding (Fig. 4b)”.
